Experimental data published in article PMC7944860 (Antiviral Research, 2021).
“And” between values parts separate entries of the source, which are not always exact repeats. Identical values can stand only once. Like-named read-outs stand apart in the source and are kept apart here.

How the values were obtained:
SARS-CoV2 [1] = test: microbe, parasite or virus in culture; type: cell-based; details: for EC50: read-out: EC50 (μM) (mean ± SD)
HCoV-OC43 [2] = test: HCoV-OC43 focus reduction assay on MRC-5 cells; type: cell-based; details: for selectivity index: HCoV-OC43, ratio of CC50 and EC50
SARS-CoV2 [3] = details: 2020, cited from earlier work; for increase of remdesivir inhibitory activity (synergy): ref Bafna et al.
Cell viability assay = details: human, MRC-5 cells
Cytotoxicity assay = details: human, Huh7-hACE2 cells
SARS-CoV2 [4] = test: microbe, parasite or virus in culture; type: cell-based; details: for EC50: read-out: EC50 (μM) (mean ± SD), virus yield reduction
MRC-5 cells = test: Cell viability assay; details: read-out: CC50 (μM) (mean ± SD), 20 h, MTS
Huh7-hACE2 cells = test: Cytotoxicity assay; details: read-out: CC50 (μM) (mean ± SD), 20 h, Alamar Blue
HCoV-OC43 [5] = test: HCoV-OC43 virus yield reduction assay on MRC-5 cells; type: cell-based; details: for EC50: Betacoronavirus 1, OC43, MRC5, 24 h, read-out: EC50 (μM) (mean ± SD), virus yield reduction; for Virus titer reduction Log10 (mean ± SD) at highest tested dose: FFU/mL vs infected untreated control
[6] = Severe acute respiratory syndrome coronavirus 2, 20 h
[7] = Betacoronavirus 1, OC43, MRC5, 20 h, read-out: EC50 (μM) (mean ± SD), HCoV-OC43, MRC-5 cells, 20 h, focus reduction
[8] = HCoV-OC43, MRC-5 cells, 20 h, focus reduction
[9] = read-out: EC50 (μM) (mean ± SD), HCoV-OC43, MRC-5 cells, 20 h, focus reduction

Structure (SMILES)	EC50 (SARS-CoV2 [1]; [6])	EC50 (HCoV-OC43 [2]; [7])	CC50 at 20 h (Cell viability assay)	CC50 at 20 h (Cytotoxicity assay)	other results
COc1ccc2c(O[C@@H]3C[C@H]4C(=O)N[C@]5(C(=O)NS(=O)(=O)C6CC6)C[C@H]5/C=C\CCCCN(C)C(=O)[C@@H]4C3)cc(-c3nc(C(C)C)cs3)nc2c1C [Simeprevir]	~9.3 µM	~2.1 µM	11.1 ± 2.3 µM	47.5 ± 41 µM	increase of remdesivir inhibitory activity (synergy) (SARS-CoV2 [3]): ≤ 10 fold
COc1cc([C@@H]2c3cc4c(cc3[C@@H](O[C@@H]3O[C@@H]5CO[C@@H](c6cccs6)O[C@H]5[C@H](O)[C@H]3O)[C@H]3COC(=O)[C@H]23)OCO4)cc(OC)c1O [Teniposide]	97 ± 0.7 µM		701 ± 281 µM	> 100 µM	EC50 (μM) (mean ± SD) (HCoV-OC43 [2]; [8]): no antiviral activity
C=C[C@@H]1C[C@]1(NC(=O)[C@@H]1C[C@@H]2CN1C(=O)[C@H](C(C)(C)C)NC(=O)O[C@@H]1C[C@H]1CCCCCc1nc3ccc(OC)cc3nc1O2)C(=O)NS(=O)(=O)C1CC1.O [Grazoprevir]					EC50 (SARS-CoV2 [1]): ~16 µM and 16 µM; Virus titer reduction Log10 (mean ± SD) at highest tested dose (SARS-CoV2 [4]): 3.9 and 3.9 ± 0.07 (100 μM) Log10; EC50 (SARS-CoV2 [4]): 3.3 ± 0.9 µM; EC50 (HCoV-OC43 [2]; [9]): 11 ± 1.1 µM; increase of remdesivir inhibitory activity (synergy) (SARS-CoV2 [3]): ≤ 10 fold; CC50 (MRC-5 cells): 70 ± 12.8 µM; CC50 (Huh7-hACE2 cells): 118 ± 6 µM
CCc1c2c(nc3ccc(OC(=O)N4CCC(N5CCCCC5)CC4)cc13)-c1cc3c(c(=O)n1C2)COC(=O)[C@]3(O)CC [Irinotecan]	85.2 ± 17 µM		63.4 ± 11.4 µM	> 100 µM	EC50 (μM) (mean ± SD) (HCoV-OC43 [2]; [8]): no antiviral activity
CC1(C)CCC(CN2CCN(c3ccc(C(=O)NS(=O)(=O)c4ccc(NCC5CCOCC5)c([N+](=O)[O-])c4)c(Oc4cnc5[nH]ccc5c4)c3)CC2)=C(c2ccc(Cl)cc2)C1 [Venetoclax]	~6.2 µM	3.5 ± 0.5 µM	10.6 ± 1.5 µM	22 ± 6.2 µM	
Cc1ccc(C(=O)Nc2ccc(CN3CCN(C)CC3)c(C(F)(F)F)c2)cc1C#Cc1cnc2cccnn12 [Ponatinib]	1.1 ± 0.2 µM	0.1 ± 0.05 µM	3.1 ± 0.5 µM	8.7 ± 3.8 µM	
CCc1cc2c(cc1N1CCC(N3CCOCC3)CC1)C(C)(C)c1[nH]c3cc(C#N)ccc3c1C2=O [Alectinib]		0.6 ± 0.2 µM	> 1000 µM		EC50 (μM) (mean ± SD) (SARS-CoV2 [1]): no activity; EC50 (HCoV-OC43 [5]): 1 ± 0.1 µM; Virus titer reduction Log10 (mean ± SD) at highest tested dose (HCoV-OC43 [5]; HCoV-OC43, 33 μM): 2.9 ± 0.1 (33 μM) Log10
Cc1ccc(C(=O)Nc2ccc(S(=O)(=O)O)c3cc(S(=O)(=O)O)cc(S(=O)(=O)O)c23)cc1NC(=O)c1cccc(NC(=O)Nc2cccc(C(=O)Nc3cc(C(=O)Nc4ccc(S(=O)(=O)O)c5cc(S(=O)(=O)O)cc(S(=O)(=O)O)c45)ccc3C)c2)c1 [Suramin]	64 ± 6.6 µM	19.3 ± 4.3 µM	> 1000 µM	> 100 µM	
C[C@@H]1C/C=C/C=C/C=C/C=C/[C@H](O[C@@H]2O[C@H](C)[C@@H](O)[C@H](N)[C@@H]2O)C[C@@H]2O[C@](O)(C[C@@H](O)C[C@H]3O[C@@H]3/C=C/C(=O)O1)C[C@H](O)[C@H]2C(=O)O [Natamycin]	24.3 ± 4.4 µM		47.3 ± 4.4 µM	35.9 ± 13.4 µM	EC50 (μM) (mean ± SD) (HCoV-OC43 [2]; [8]): no antiviral activity
COC(=O)N[C@H](C(=O)N1CCC[C@H]1c1nc(-c2ccc3c(c2)O[C@@H](c2ccccc2)n2c-3cc3cc(-c4c[nH]c([C@@H]5CCCN5C(=O)[C@@H](NC(=O)OC)C(C)C)n4)ccc32)c[nH]1)C(C)C [Elbasvir]	~23 µM	~1.5 µM	> 1000 µM	> 1000 µM	Virus titer reduction Log10 (mean ± SD) at highest tested dose (SARS-CoV2 [4]): 0.6 and 0.6 ± 0.2 (100 μM) Log10; EC50 (SARS-CoV2 [4]; [6]): 14.4 ± 7.9 µM; selectivity index (HCoV-OC43 [2]): higher than 600; EC50 (HCoV-OC43 [5]): 1.3 ± 0.4 µM; Virus titer reduction Log10 (mean ± SD) at highest tested dose (HCoV-OC43 [5]; HCoV-OC43, 100 μM): 1.4 ± 0.2 (100 μM) Log10; increase of remdesivir's apparent potency in preventing SARS-CoV2 replication (SARS-CoV2 [3]; in combination with grazoprevir (Zepatier), ref Nguyenla et al.): 25 fold
CC1(C)[C@@H](OC(=O)CCC(=O)O)CC[C@]2(C)[C@H]3C(=O)C=C4[C@@H]5C[C@@](C)(C(=O)O)CC[C@]5(C)CC[C@@]4(C)[C@]3(C)CC[C@@H]12 [Carbenoxolone]	66 ± 11 µM	45.7 ± 8 µM	251 ± 17 µM	> 100 µM	
CCN1CCN(C(=O)N[C@@H](C(=O)N[C@@H]2C(=O)N3C(C(=O)O)=C(CSc4nnnn4C)CS[C@H]23)c2ccc(O)cc2)C(=O)C1=O [Cefoperazone]			> 1000 µM		EC50 (μM) (mean ± SD) (HCoV-OC43 [2]; [8]): no antiviral activity
Cn1nnc(-c2ccc(-c3ccc(N4C[C@H](COP(=O)(O)O)OC4=O)cc3F)cn2)n1 [Tedizolid, Tedizolid phosphate]					EC50 (HCoV-OC43 [2]; [9]): 94 ± 25 µM; CC50 (MRC-5 cells): > 1000 µM
O=C1[C@@H]2[C@H]3CC[C@H](C3)[C@@H]2C(=O)N1C[C@@H]1CCCC[C@H]1CN1CCN(c2nsc3ccccc23)CC1 [Lurasidone]	18 ± 4.6 µM	1.1 ± 0.4 µM	> 1000 µM	> 1000 µM	Virus titer reduction Log10 (mean ± SD) at highest tested dose (SARS-CoV2 [4]): 1.3 and 1.3 ± 0.3 (100 μM) Log10; EC50 (SARS-CoV2 [4]; [6]): 6.4 ± 3.9 µM; selectivity index (HCoV-OC43 [2]): higher than 600; EC50 (HCoV-OC43 [5]): 8.3 ± 2 µM; Virus titer reduction Log10 (mean ± SD) at highest tested dose (HCoV-OC43 [5]; HCoV-OC43, 100 μM): 6.3 ± 1.5 (100 μM) Log10
